One data set has as its target membraneous ATPase. The data set is described as follows: Inhibition of membraneous ATPase. It is filed as biochemical. The note with it: read-out: ED50 (dose causing 50% inhibition of membraneous ATPase). The source says:
The results obtained using the derivatives of the invention described in Examples 2, 6 and 7 and ouabain and digoxin are shown in Table 2 below.
In Table 2, the ED50 value is the dose causing 50% inhibition of membraneous ATPase.

Another data set deals with cardiac contractility. The experiment in a line: Toxicity versus increase in cardiac contractility in the anesthetized dog. It is filed as in vivo. An excerpt:
Similarly, the toxicity of the derivatives of the invention is reversible, that is, stopping their administration is sufficient to make problems observed using an electrocardiogram disappear.

The subject of data set [1] is isolated guinea pig auricle. The experiment in a line: Positive inotropic activity: increase in force of contraction on the isolated guinea pig auricle. The note with it: Cavia porcellus, read-out: Range of contractions in relation to the control values; for activation at 2 µM: 2 × 10^-6 Moles/l; for activation at 0.2 µM: 2 × 10^-7 Moles/l; for activation at 6 µM: 6 × 10^-6 Moles/l; for activation at 10 µM: 10^-5 Moles/l; for activation at 1 µM: 10^-6 Moles/l. An excerpt:
Inotropic activity has been verified on the isolated guinea pig auricle under normal experimental conditions, by recording the range of contractions for various doses administered in relation to control values.
Range of contractions in relation to the control values

With `C[C@@H]1O[C@@H](O[C@H]2CC[C@@]3(C)[C@H](CC[C@@H]4[C@@H]3CC[C@]3(C)[C@@H](CO)CC[C@]43N)C2)[C@H](O)[C@H](O)[C@H]1O` [Example 2, 3-O-(α-L-rhamnopyranosyl) 14β-amino 21-nor 5β-pregnane 3β,20-diol], the IC50 at membraneous ATPase was found to be 0.13 nM.

With `C[C@H]1O[C@@H](O[C@H]2[C@@H](O)C[C@H](O[C@H]3[C@@H](O)C[C@H](O[C@H]4CC[C@@]5(C)[C@H](CC[C@@H]6[C@@H]5C[C@@H](O)[C@]5(C)[C@@H](C7=CC(=O)OC7)CC[C@]65O)C4)O[C@@H]3C)O[C@@H]2C)C[C@H](O)[C@@H]1O` [digoxin, reference compound], the IC50 on membraneous ATPase was determined as 5.3 nM. In addition, the “increase in cardiac contractility at which toxic signs appear” value in the data set with cardiac contractility (same experimental conditions) was “approximately 50%”. For the same compound, in data set [1], the activation at 2 µM turned out to be 114%, the activation at 0.2 µM amounted to 38%, the activation at 6 µM was found to be 128% and the activation at 10 µM amounted to 128%. In data set [1], the activation at 1 µM worked out at 100%.

With `C[C@@H]1O[C@@H](O[C@H]2CC[C@@]3(C)[C@H](CC[C@@H]4[C@@H]3CC[C@]3(C)[C@@H]([C@@H](C)O)CC[C@]43N)C2)[C@H](O)[C@H](O)[C@H]1O` [Example 7, 3-O-(α-L-rhamnopyranosyl) 14β-amino 5β-pregnane 3β,20β-diol], on membraneous ATPase, the IC50 came to 0.07 nM. Besides, in data set [1], the activation at 2 µM is 178%, the activation at 0.2 µM came to 50%, the activation at 6 µM stood at 233% and the activation at 10 µM worked out at 206%. Further, the activation at 1 µM in data set [1] was found to be 97%.

For `C[C@H](O)[C@H]1CC[C@]2(N)[C@@H]3CC[C@@H]4C[C@@H](O[C@@H]5O[C@@H](C)[C@H](O)[C@@H](O)[C@H]5O)CC[C@]4(C)[C@H]3CC[C@]12C` [Example 6, 3-O-(α-L-rhamnopyranosyl) 14β-amino 5β-pregnane 3β,20α-diol], on membraneous ATPase, the IC50 was found to be 0.18 nM. In the data set on cardiac contractility, the “increase in cardiac contractility without any signs of toxicity” value came out at 150%. Moreover, in the data set with cardiac contractility (at 150% increase in cardiac contractility), the signs of toxicity result is listed as “without any signs of toxicity”. Besides, in data set [1], the activation at 2 µM came out at 63%, the activation at 6 µM is 143%, the activation at 10 µM worked out at 148% and the activation at 1 µM amounted to 43%.

Regarding `C[C@@H]1O[C@@H](O[C@H]2C[C@@H](O)[C@]3(CO)[C@H]4[C@H](O)C[C@]5(C)[C@@H](C6=CC(=O)OC6)CC[C@]5(O)[C@@H]4CC[C@]3(O)C2)[C@H](O)[C@H](O)[C@H]1O` [ouabain, reference compound], the IC50 at membraneous ATPase worked out at 3.6 nM.

The values above are taken from patent publication US4552868A, “14-Amino steroid derivatives, a process for the preparation thereof and method of use thereof” (Etablissements Nativelle S.A., priority 1982, dated 1985).
